What all share (format): cell-based, human
One assay relates to P70 S6 kinase. Description: Western blot of phospho-p70 S6 kinase T389 in PASM cells. The method, then:
FIGS. 4A-4D are bar graphs and digital images showing that LY303511 inhibits serum-stimulated phosphorylation of S6K and Akt (FIGS. 4A and 4B), as well as proliferation in PASM cells (FIGS. 4C and 4D). After incubation in serum-free medium for 24 hours, PASM cells were incubated without or with 100 μM LY303511, rapamycin, 200 ng/ml, or 200 nM wortmannin (FIG. 4A), or 0-100 μM LY303511 (FIG. 4B), for 1 hour before the addition of 10% FBS for 30 min and preparation of cell lysates. Equal amounts of protein (20 μg/gel) were separated by SDS-PAGE and transferred to nitrocellulose membranes before immunodetection of phospho-p70 S6 kinase T389 (pS6K) orphospho-Akt S473 (pAkt) by Western blot. Data are from one experiment representative of five.
HPASM cells were purchased from Clonetics and passaged according to the manufacturer's instructions. Cells were plated in 100 mm dishes, and allowed to grow to near confluence before serum starvation for 24 hours. […] Cells were homogenized and the indicated proteins were detected by Western blot.
Measurement of protein phosphorylation: A549 cells were incubated in serum-free medium without or with inhibitors for 1 hour, as indicated, before incubation for 30 minutes with a mixture of LPS, 100 μg/ml (Sigma; St. Louis, Mo.) and IFN-γ, 100 U/ml (Roche; Nutley, N.J.). […] Integrated band densities were quantified using Scion Image beta 3b software.

In another assay the test system is PASM cells. The assay is described as follows: BrDU incorporation (in situ ELISA) in PASM cells. As for the experimental part:
PASM cells (4,000 per well) were grown in 96-well plates for 24 hours before incubation for 24 hours in medium with (FIG. 4C) or without 10% FBS (FIG. 4D). Cells were then incubated in fresh medium containing 10% FBS, 10 μM BrDU, and 0-100 μM LY303511 without or with rapamycin, 200 or 400 ng/ml, for 24 hours BrDU incorporation was measured by in situ ELISA as per the manufacturer's instructions (BrDU detection kit, Roche). For each experiment, BrDU content of cells incubated with inhibitors was expressed relative to that in cells incubated with 0.1% DMSO control (% control). Mean control (=100%) absorbance for each experiment using cells from different donors was 0.22±0.06 and 0.24±0.06 for FIG. 4C and FIG. 4D, respectively (=100%). Data are means of BrDU values ±SEM from 3 experiments with assays in sextuplet. *p<0.05 vs. DMSO control, or †p<0.05 vs. 10 μM LY303511, by Student's t-test.
Measurement of cell proliferation:. Cell proliferation, or DNA synthesis, was estimated using an in situ 5-bromo-2-deoxy-uridine (BrDU) detection kit as per the manufacturer's instructions (Roche Diagnostics; Nutley, N.J.). […] Cells were fixed, and BrDU was detected using a peroxidase-conjugated anti-BrDU antibody. The measured absorbance data in cells treated with inhibitors were normalized to those treated with DMSO control (% control).
(In general: In an ELISA, binding on a coated surface is turned into a signal by an enzyme label.)

The test system of another assay is AKT. The assay is described as follows: Western blot of phospho-Akt S473 in A549 cells. As for the experimental part: A549 cells were treated without or with 100 mcM LY303511, 200 ng/ml rapamycin, or 50 nM wortmannin in serum free media for 1 hour before addition of E. coli lipopolysaccharide (LPS), […] and interferon (IFN)-γ, 100 U/ml (LPS/IFN-γ or “L/I”). Cells were homogenized and the indicated proteins (see Table 1) were detected by Western blot. Western blots are from the same experiment, and representative of three experiments.
Measurement of protein phosphorylation: A549 cells were incubated in serum-free medium without or with inhibitors for 1 hour, as indicated, before incubation for 30 minutes with a mixture of LPS, 100 μg/ml (Sigma; St. Louis, Mo.) and IFN-γ, 100 U/ml (Roche; Nutley, N.J.). PASM cells were incubated in serum-free medium without or with inhibitors for 24 h as indicated, before incubation for 30 min with 10% FBS. A549 or PASM cells were washed once with cold PBS and incubated for 15 minutes on ice ih lysis buffer (20 mM Tris pH 8.0, 1% Nonidet P-40, 1 mM EDTA, 5 mM benzamidine, aprotinin, 10 μg/ml, leupeptin, 10 μg/ml, trypsin soybean inhibitor, 1 mM PMSF, 50 mM sodium fluoride, 100 μM sodium orthovanadate, and 1: 100 Sigma phosphatase inhibitor set I containing cantharidin, microcystin LR and bromotetramizole). […] Integrated band densities were quantified using Scion Image beta 3b software.
In general terms: In western blotting, separated proteins are transferred to a membrane and probed.

The subject of the next assay is A549 cells. Description: Western blot of cell cycle inhibitors, cyclins and phospho-Rb in A549 cells. As for the experimental part:
FIGS. 3A-3B are bar graphs and digital images showing the effect of LY303511 on the levels of cell cycle inhibitors and cyclins. A549 cells (˜1×10^6 cells per 100-mm dish) were grown for 48 h before addition of 0.1% DMSO, 100 μM LY303511, or rapamycin, 200 ng/ml, for 0, 12, or 24 hours. At the indicated times, cells were homogenized and stored at −80° C. For Western blot analyses, samples (70 μg) of lysate proteins separated by SDS-PAGE were transferred to nitrocellulose membranes and reacted with the following antibodies: A. Phospho-S6K T389 (pS6K), p27 Kip1, p21 Cip1, phospho-Rb S807/S811, or B. Cyclin A, Cyclin B, Cyclin D, and Cyclin E. All blots are from one experiment. Data below (relative density) are means of densitometric values from duplicate dishes treated with inhibitors for 24 hours relative to DMSO control=1.0 in three experiments. *p<0.05 vs. DMSO control by Student's t-test.
In another experiment, A549 cells were grown to sub-confluence in serum-containing media, and incubated with a vehicle, 100 mcM LY303511, or rapamycin, 200 ng/ml for 0, 12, or 24 hours. Cells were lysed, and proteins separated by SDS-PAGE before transfer to nitrocellulose membranes. Membranes were incubated with antibodies against p27Kip1, p21 Cip1 orphospho-P70 S6 kinase T389.

The mark [1] stands for this setting: 100 mcM LY303511 or rapamycin 200 ng/ml, 12 and 24 hours.

Each structure is given as a SMILES string.

In the case of `O=c1cc(N2CCNCC2)oc2c(-c3ccccc3)cccc12` [LY303511, 2-(4-piperazinyl)-8-phenyl-4H-1-benzopyran-4-one], the IC50 in the assay on P70 S6 kinase (Homo sapiens, pulmonary artery smooth muscle cells, densitometry, read-out: IC50 for inhibition of S6K phosphorylation) was roughly 1 µM. For the same molecule, in the assay with P70 S6 kinase (PASM cells, 10% FBS for 30 minutes), the “basal and serum-stimulated phosphorylation of P70 S6 kinase” value was “inhibited basal and serum-stimulate phosphorylation of P70 S6 kinase”. Besides, the “proliferation (BrDu incorporation)” value is given as “enhanced in the absence of serum” in the assay on PASM cells (PASM cells in serum-free medium for 24 h before addition of FBS (FIG. 4D), compared with serum pre-incubation) and “inhibited in concentration-dependent fashion” in the assay on PASM cells (PASM cells incubated with serum before addition of inhibitors (FIG. 4C)). In the assay with AKT (even at 100 mcM), the “inhibition of phosphorylation of Akt” value is recorded as “does not inhibit phosphorylation of Akt”. The “phosphorylation of AKT (S473)” value with AKT (inhibitors 1 hour before LPS/IFN-γ, Western blot) is “increase phosphorylation of AKT”. Further, the “phosphorylation of Rb (S807/S811)” value in the assay with A549 cells (100 mcM LY303511) is “reduced the phosphorylation of Rb”. Moreover, the “levels of cyclin A and B” value with A549 cells (100 mcM LY303511 or rapamycin 200 ng/ml) is “decreased levels of cyclin A and B”. Further, the “p21 Cip1 level” value with A549 cells (setting [1]) is “significant increase in p21 Cip1”. Moreover, the p27Kip1 level entry in the assay on A549 cells (setting [1]) was “accumulation of p27Kip1”.

The term IC50 denotes the concentration needed to halve the response being measured.

The values are drawn from patent US8044057B2, “Methods for suppressing an immune response or treating a proliferative disorder” (The United States of America as represented by the …, priority 2003, dated 2011).
